Where a name gives a salt, the structure may show the parent alone.
Legend:
Type in all cases: in vivo
[1] = test system: rice cv. Cheniere; assay: Pouch assay, root length of rice seedlings; conditions: for effect on root length of rice seedlings / effect on main root length of rice cv. Cheniere: pouch solution; for effect on main root length of rice cv. Cheniere: combination: 3, 10, or 30 mg/liter PESA with 1 or 10 mg/liter trinexapac-ethyl
Procedure: (§1) Seeds were placed in germination pouches consisting of germination paper hydrated with sterile water that was an insert in a gas-permeable 16×14 cm plastic pouch (CYG Pouch; Mega International, St. Paul, Minn.). In these examples, in pouch solution evaluation, PESA sodium salt or other active ingredients were added to the sterile water in the pouch. The pouches were arranged in a completely randomized block design in growth racks and placed in 19-liter polycarbonate food storage containers (Rubbermaid Commercial Products, Winchester, Va.). The sealed containers were held in an upright growth cabinet maintained at 25° C. with a 12 hour light: 12 hour dark photoperiod. When Abscisic acid was assayed in pouch studies, the pouches were first filled with sterile water to promote germination. The sterile water solutions were replaced after germination (4 days) and replaced with solutions containing ABA. After 6 days, the containers were removed from the growth cabinet, and the lengths of the roots and shoot were measured.
In pouch solution evaluation, treatment with the gibberellin biosynthesis inhibitor trinexapac-ethyl on […].

[2] = test system: lettuce; assay: Lettuce seed treatment, root growth; conditions: 25° C. in darkness, 3 days
Procedure: (§2) Seed was sieved with a screen of mesh size appropriate to remove broken seeds and small trash. Cracked or otherwise damaged seeds were removed. The seed was well mixed, and 50 g samples were weighed into small plastic trays. Seed treatment slurries were made by adding measured amounts of PESA or its salts and other AIs to sufficient water to bring them up to a standard volume, typically 2 ml. A fungicide (Maxim XL; Syngenta Agricultural Products, Greensboro, N.C.), a polymeric binder (CF-Clear; Becker-Underwood, Ames, Iowa), and a colorant (Color Coat Red; Becker-Underwood, Ames, Iowa) were also included in the slurry at label rates. A small aliquot of this slurry was applied to the seed using a Hege 11 coater (Wintersteiger, Salt Lake City, Utah) with a six-inch bowl at a slurry rate of 30 ounces per 100 lbs of seed. The slurry was deposited drop-wise on the spinning disk atomizer using a syringe.
(§3) After treatment, each seed sample was placed in plastic trays and dried at a room temperature for 20 to 60 minutes. The samples were then placed in small plastic bags. […]
To test the effect of chemical application on root growth, lettuce seed was treated with PESA salt (50 g/cwt), 6BA (1 g/cwt), or a combination of PESA salt and 6BA. Treated lettuce seed was grown at 25° C. in darkness, and root lengths were determined after 3 days.

[3] = test system: lettuce; assay: Lettuce seed treatment, germination under thermodormancy conditions; conditions: 33° C. and continuous light
Procedure: as §2, §3
To test the effect of chemical application on thermodormancy, lettuce seed was treated with PESA salt (50 g/cwt), 6BA (1 g/cwt), or a combination of PESA salt and 6BA. Lettuce seed was then grown under conditions that promote thermodormancy (33° C. and continuous light) and final seedling germination was determined (Table 1).

[4] = test system: cotton; assay: Pouch assay, root length of cotton seedlings (6BA); conditions: for root length (cm) of cotton: 6BA 0 mg/liter
Procedure: as §1

[5] = test system: cotton; assay: Pouch assay, root length of cotton seedlings (ABA)
Procedure: as §1

[6] = ACC alone 1, 10, or 100 mg/liter, combination: 3, 10, or 30 mg/liter PESA with 1, 10, or 100 mg/liter ACC, except 10 mg/liter PESA with 1 mg/liter ACC
[7] = PESA salt 50 g/cwt, 6BA 1 g/cwt, alone or in combination
[8] = seed treatment 50 g/cwt PESA salt, 0 g/cwt 6BA

## NC1(C(=O)O)CC1 [ACC, 1-aminocyclopropane carboxylic acid, reference compound]
[1]; Table 4, PESA salt 0 mg/liter, ACC 1 mg/liter
  root length (cm) of rice cv. Cheniere: 8.8 cm
[1]; Table 4, PESA salt 0 mg/liter, ACC 10 mg/liter
  root length (cm) of rice cv. Cheniere: 7.8 cm
[1]; Table 4, PESA salt 0 mg/liter, ACC 100 mg/liter
  root length (cm) of rice cv. Cheniere: 4.3 cm
[1]; [6]
  effect on root length of rice seedlings: reduced root length

## CCOC(=O)C1CC(=O)C(=C(O)C2CC2)C(=O)C1 (centres unmarked) [trinexapac-ethyl, reference compound]
[1]; Table 3, PESA salt 0 mg/liter, trinexapac-ethyl 1 mg/liter
  root length (cm) of rice cv. Cheniere: 10.9 cm
[1]; Table 3, PESA salt 0 mg/liter, trinexapac-ethyl 10 mg/liter
  root length (cm) of rice cv. Cheniere: 9.9 cm
[1]; Table 3, PESA salt 0 mg/liter, trinexapac-ethyl 100 mg/liter
  root length (cm) of rice cv. Cheniere: 5.0 cm
[1]
  effect on main root length of rice cv. Cheniere: negative effect on main root length

## O=C(O)CCC(=O)NCCc1ccccc1 [PESA salt, N-(2-phenylethyl)succinamic acid]
[2]; [7]
  effect on lettuce root growth: no effect on lettuce root growth
[2]; [8]
  Root length (cm): 3.8 cm
[3]; [7]
  effect on lettuce germination: no effect
[3]; [8]
  Germination (%): 14.9%
[1]; Table 3, PESA salt 3 mg/liter, trinexapac-ethyl 0 mg/liter
  root length (cm) of rice cv. Cheniere: 12.1 cm
[1]; Table 3, PESA salt 10 mg/liter, trinexapac-ethyl 0 mg/liter
  root length (cm) of rice cv. Cheniere: 12.5 cm
[1]; Table 3, PESA salt 30 mg/liter, trinexapac-ethyl 0 mg/liter
  root length (cm) of rice cv. Cheniere: 13.1 cm
[1]; Table 4, PESA salt 3 mg/liter, ACC 0 mg/liter
  root length (cm) of rice cv. Cheniere: 9.7 cm
[1]; Table 4, PESA salt 10 mg/liter, ACC 0 mg/liter
  root length (cm) of rice cv. Cheniere: 9.8 cm
[1]; Table 4, PESA salt 30 mg/liter, ACC 0 mg/liter
  root length (cm) of rice cv. Cheniere: 9.4 cm
[1]; Table 5, PESA salt 3 mg/liter, AVG 0 mg/liter
  root length (cm) of rice cv. Cheniere: 11.4 cm
[1]; Table 5, PESA salt 30 mg/liter, AVG 0 mg/liter
  root length (cm) of rice cv. Cheniere: 12.3 cm
[1]; [6]
  effect on root length of rice seedlings: increased root length
[1]; PESA salt alone (AVG experiment)
  effect on root length of rice seedlings: increased root length
[1]
  effect on main root length of rice cv. Cheniere: increased root length in a dose-dependent manner
[4]; PESA salt 3 mg/liter
  root length (cm) of cotton: 9.8 cm
[4]; PESA salt 10 mg/liter
  root length (cm) of cotton: 11.9 cm
[4]; PESA salt 30 mg/liter
  root length (cm) of cotton: 13.0 cm
[4]; pouch solution, combination: 10 or 30 mg/liter PESA with 1 or 10 mg/liter 6BA
  effect on main root length of cotton seedlings: increased root length in a dose-dependent manner
[5]; PESA salt 3 mg/liter, ABA 0 mg/liter
  root length (cm) of cotton: 11.9 cm
[5]; PESA salt 10 mg/liter, ABA 0 mg/liter
  root length (cm) of cotton: 11.1 cm

## CC1=CC(=O)CC(C)(C)[C@@]1(O)/C=C/C(C)=C\C(=O)O [ABA, abscisic acid]
[5]; PESA salt 0 mg/liter, ABA 1 mg/liter
  root length (cm) of cotton: 10.4 cm
[5]; PESA salt 0 mg/liter, ABA 10 mg/liter
  root length (cm) of cotton: 10.0 cm
[5]; pouch solution, combination: PESA 3 or 10 mg/liter with ABA
  effect on root growth of cotton seedlings: inhibited root growth

Reference: patent US8426340B2, “Plant growth enhancement with combinations of PESA and plant growth regulators” (Valent BioSciences Corporation, priority 2009, dated 2013)
